Experimental data from paper PMC4965013, “Open Source Drug Discovery with the Malaria Box Compound Collection for Neglected Diseases and Beyond” (PLoS Pathogens, 2016).
One block for each compound: values may come before it.

Legend:
[1] = test system: P. falciparum 3D7 trophozoites; assay: Metabolomic fingerprint profiling LC-MS; assay type: cell-based, Plasmodium falciparum; design: UDP-D-glucose / ADP-D-glucose: unit not given here; conditions: for Acetyllysine / N-acetyl-L-ornithine / N-carbamoyl-L-aspartate / NADPH / dAMP / dCMP / dTDP / dTMP / dTTP / dihydroorotate / orotate / DLH / DLS/SDL/SID / PD / PEE / PVNF / 3-phosphoglycerate / ADP-D-glucose / ATP / CDP / D-sedoheptulose-1/7-phosphate / FAD / GMP / NAD+ / NADP+ / Octoluse Bisphosphate / Pyroglutamic acid / UDP-D-glucose / UDP-D-glucuronate / UDP-N-acetyl-glucosamine / UDP / UMP / UTP / a-ketoglutarate / citrate/isocitrate / cytidine / dATP / dGMP/AMP / fumarate / glucose-1/6-phosphate / glycerate / guanine / guanosine / hypoxanthine / indole / inosine / nicotinate / ornithine / phosphoenolpyruvate / pyruvate / ribose-phosphate / sarcosine/alanine / sn-glycerol-3-phosphate / succinate/methylmalonic acid / uridine / xanthosine: S2 Table Metabolomics; for Acetyllysine: metabolite Acetyllysine; for N-acetyl-L-ornithine: metabolite N-acetyl-L-ornithine; for N-carbamoyl-L-aspartate: metabolite N-carbamoyl-L-aspartate; for NADPH: metabolite NADPH; for dAMP: metabolite dAMP; for dCMP: metabolite dCMP; for dTDP: metabolite dTDP; for dTMP: metabolite dTMP; for dTTP: metabolite dTTP; for dihydroorotate: metabolite dihydroorotate; for orotate: metabolite orotate; for DLH: peptide DLH; for DLS/SDL/SID: peptide DLS/SDL/SID; for PD: peptide PD; for PEE: peptide PEE; for PVNF: peptide PVNF; for 3-phosphoglycerate: metabolite 3-phosphoglycerate; for ADP-D-glucose: metabolite ADP-D-glucose; for ATP: metabolite ATP; for CDP: metabolite CDP; for CDP / D-sedoheptulose-1/7-phosphate / GMP / Octoluse Bisphosphate / UDP / UMP / UTP / citrate/isocitrate / dGMP/AMP / fumarate / glucose-1/6-phosphate / glycerate / guanine / guanosine / inosine / pyruvate / sarcosine/alanine / succinate/methylmalonic acid / uridine / xanthosine: change in metabolite level after compound treatment; for D-sedoheptulose-1/7-phosphate: metabolite D-sedoheptulose-1/7-phosphate; for FAD: metabolite FAD; for GMP: metabolite GMP; for NAD+: metabolite NAD+; for NADP+: metabolite NADP+; for Octoluse Bisphosphate: metabolite Octoluse Bisphosphate; for Pyroglutamic acid: metabolite Pyroglutamic acid; for UDP-D-glucose: metabolite UDP-D-glucose; for UDP-D-glucuronate: metabolite UDP-D-glucuronate; for UDP-N-acetyl-glucosamine: metabolite UDP-N-acetyl-glucosamine; for UDP: metabolite UDP; for UMP: metabolite UMP; for UTP: metabolite UTP; for a-ketoglutarate: metabolite a-ketoglutarate; for citrate/isocitrate: metabolite citrate/isocitrate; for cytidine: metabolite cytidine; for dATP: metabolite dATP; for dGMP/AMP: metabolite dGMP/AMP; for fumarate: metabolite fumarate; for glucose-1/6-phosphate: metabolite glucose-1/6-phosphate; for glycerate: metabolite glycerate; for guanine: metabolite guanine; for guanosine: metabolite guanosine; for hypoxanthine: metabolite hypoxanthine; for indole: metabolite indole; for inosine: metabolite inosine; for 2_3-Diphosphoglyceric acid / 4-phosphopantothenate / 6-phospho-D-gluconate / FMN / IMP / Pyrophosphate / Sedoheptoluse bisphosphate / cyclic-AMP / glutathione disulfide / lactate / myo-inositol: metabolite level change after treatment; for nicotinate: metabolite nicotinate; for ornithine: metabolite ornithine; for phosphoenolpyruvate: metabolite phosphoenolpyruvate; for pyruvate: metabolite pyruvate; for ribose-phosphate: metabolite ribose-phosphate; for sarcosine/alanine: metabolite sarcosine/alanine; for sn-glycerol-3-phosphate: metabolite sn-glycerol-3-phosphate; for succinate/methylmalonic acid: metabolite succinate/methylmalonic acid; for uridine: metabolite uridine; for xanthosine: metabolite xanthosine
P. falciparum = assay: EC50 listed in S2 Table Metabolomics (used to set the concentration tested); assay type: cell-based; conditions: Plasmodium falciparum; EC50 used for Factor_XEC50 in metabolomics; read-out: EC50_nM

EC50 (P. falciparum): 170 nM
SMILES: COc1ccc(-n2ccnc2SCC(=O)Nc2cc(C)ccc2C)c(OC)c1 [MMV019258]
Acetyllysine [1]: -0.6249
N-acetyl-L-ornithine [1]: -0.6242
N-carbamoyl-L-aspartate [1]: 3.802
NADPH [1]: -0.4851
dAMP [1]: -1.834
dCMP [1]: 0.07117
dTDP [1]: -1.878
dTMP [1]: -1.688
dTTP [1]: -1.338
dihydroorotate [1]: 5.204
orotate [1]: -0.1277
DLH [1]: -0.04693
DLS/SDL/SID [1]: -0.2869
PD [1]: -0.04264
PEE [1]: -0.4454
PVNF [1]: -2.048
3-phosphoglycerate [1]: 0.6242
ADP-D-glucose [1]: 0.3573
ATP [1]: 0.2564
CDP [1]: -1.841
D-sedoheptulose-1/7-phosphate [1]: -1.029
FAD [1]: 0.0674
GMP [1]: 1.676
NAD+ [1]: 0.1657
NADP+ [1]: 0.1196
Octoluse Bisphosphate [1]: -0.03706
Pyroglutamic acid [1]: 0.9996
UDP-D-glucose [1]: 0.07144
UDP-D-glucuronate [1]: -0.1808
UDP-N-acetyl-glucosamine [1]: -0.2701
UDP [1]: -2.466
UMP [1]: -0.6353
UTP [1]: -1.944
a-ketoglutarate [1]: 0.866
citrate/isocitrate [1]: 0.4908
cytidine [1]: 0.5413
dATP [1]: 0.5274
dGMP/AMP [1]: -0.3361
fumarate [1]: 0.3957
glucose-1/6-phosphate [1]: 0.221
glycerate [1]: 0.7468
guanine [1]: 0.4637
guanosine [1]: 0.7901
hypoxanthine [1]: 1.05
indole [1]: 0.5756
inosine [1]: 0.8159
2_3-Diphosphoglyceric acid [1]: -0.06901
4-phosphopantothenate [1]: -0.2542
6-phospho-D-gluconate [1]: 0.0357
FMN [1]: -0.006391
IMP [1]: 0.3439
Pyrophosphate [1]: -0.1345
Sedoheptoluse bisphosphate [1]: -0.0261
cyclic-AMP [1]: -0.1381
glutathione disulfide [1]: -0.07054
lactate [1]: 0.415
myo-inositol [1]: -0.225
nicotinate [1]: 0.9606
ornithine [1]: 0.46
phosphoenolpyruvate [1]: 0.911
pyruvate [1]: 0.8605
ribose-phosphate [1]: 0.2278
sarcosine/alanine [1]: 0.199
sn-glycerol-3-phosphate [1]: 0.01743
succinate/methylmalonic acid [1]: 0.09628
uridine [1]: 0.32
xanthosine [1]: 1.135

EC50 (P. falciparum): 263 nM
SMILES: Cc1cc(C=C2SC(=Nc3ccccc3)N(C3CCCC3)C2=O)c(C)n1-c1ccc(Cl)cc1 [MMV666688]
Acetyllysine [1]: -0.1624
N-acetyl-L-ornithine [1]: -0.0421
N-carbamoyl-L-aspartate [1]: 1.4864
NADPH [1]: 0.2408
dAMP [1]: 0.03218
dCMP [1]: -0.069
dTDP [1]: -0.4979
dTMP [1]: -0.4157
dTTP [1]: -0.4815
dihydroorotate [1]: 2.242
orotate [1]: -0.3391
DLH [1]: -0.1014
DLS/SDL/SID [1]: -0.07676
PD [1]: 0.01194
PEE [1]: -0.1091
PVNF [1]: -0.1399
3-phosphoglycerate [1]: -0.02892
ADP-D-glucose [1]: -0.07639
ATP [1]: -0.1967
CDP [1]: -0.456
D-sedoheptulose-1/7-phosphate [1]: -0.2168
FAD [1]: -0.003318
GMP [1]: 0.2544
NAD+ [1]: -0.2173
NADP+ [1]: -0.08704
Octoluse Bisphosphate [1]: -0.1579
Pyroglutamic acid [1]: 0.04307
UDP-D-glucose [1]: -0.04445
UDP-D-glucuronate [1]: -0.08539
UDP-N-acetyl-glucosamine [1]: -0.1189
UDP [1]: -0.6253
UMP [1]: -0.03143
UTP [1]: -0.1882
a-ketoglutarate [1]: 0.009693
citrate/isocitrate [1]: -0.05943
cytidine [1]: 0.03268
dATP [1]: 0.7542
dGMP/AMP [1]: -0.3421
fumarate [1]: -0.03259
glucose-1/6-phosphate [1]: 0.01665
glycerate [1]: 0.07227
guanine [1]: 0.07709
guanosine [1]: 0.1849
hypoxanthine [1]: 0.08201
indole [1]: 0.1358
inosine [1]: 0.04909
2_3-Diphosphoglyceric acid [1]: -0.2563
4-phosphopantothenate [1]: -0.1327
6-phospho-D-gluconate [1]: -0.08404
FMN [1]: -0.1061
IMP [1]: -0.002655
Pyrophosphate [1]: 0.3465
Sedoheptoluse bisphosphate [1]: -0.1911
cyclic-AMP [1]: -0.1214
glutathione disulfide [1]: -0.05112
lactate [1]: 0.01618
myo-inositol [1]: 0.01299
nicotinate [1]: -0.0155
ornithine [1]: -0.1088
phosphoenolpyruvate [1]: -0.02123
pyruvate [1]: 0.008296
ribose-phosphate [1]: -0.004186
sarcosine/alanine [1]: -0.1822
sn-glycerol-3-phosphate [1]: 0.09746
succinate/methylmalonic acid [1]: -0.05454
uridine [1]: -0.08058
xanthosine [1]: 0.111

EC50 (P. falciparum): 237 nM
SMILES: CCCCCC(=O)N1c2ccccc2N=C2CC(c3ccc(OC)c(OC)c3)CC(O)=C2C1c1ccc(C(F)(F)F)cc1 (stereo not drawn) [MMV085583]
Acetyllysine [1]: -3.233
N-acetyl-L-ornithine [1]: -2.906
N-carbamoyl-L-aspartate [1]: -0.5597
NADPH [1]: 1.284
dAMP [1]: 0.2596
dCMP [1]: -0.4552
dTDP [1]: -0.3582
dTMP [1]: -0.9265
dTTP [1]: 0.1067
dihydroorotate [1]: -0.6697
orotate [1]: -1.058
DLH [1]: -2.5
DLS/SDL/SID [1]: -2.559
PD [1]: -2.735
PEE [1]: -2.9857
PVNF [1]: -3.329
3-phosphoglycerate [1]: 0.3606
ADP-D-glucose [1]: -0.0158
ATP [1]: -0.07202
CDP [1]: -0.3911
D-sedoheptulose-1/7-phosphate [1]: -0.5433
FAD [1]: -0.3185
GMP [1]: -0.4734
NAD+ [1]: -0.2717
NADP+ [1]: 0.1968
Octoluse Bisphosphate [1]: -0.2833
Pyroglutamic acid [1]: -0.1555
UDP-D-glucose [1]: -0.1587
UDP-D-glucuronate [1]: -0.1055
UDP-N-acetyl-glucosamine [1]: -0.2414
UDP [1]: -0.8399
UMP [1]: -0.6631
UTP [1]: -0.1073
a-ketoglutarate [1]: -0.8202
citrate/isocitrate [1]: -0.2512
cytidine [1]: -0.09635
dATP [1]: 0.2253
dGMP/AMP [1]: -0.1442
fumarate [1]: -0.4715
glucose-1/6-phosphate [1]: -0.3133
glycerate [1]: -0.7263
guanine [1]: -0.4303
guanosine [1]: -0.4531
hypoxanthine [1]: -0.4709
indole [1]: -0.4645
inosine [1]: -0.4523
2_3-Diphosphoglyceric acid [1]: 0.1524
4-phosphopantothenate [1]: -0.4091
6-phospho-D-gluconate [1]: -0.01182
FMN [1]: -0.2086
IMP [1]: -0.3529
Pyrophosphate [1]: 0.1499
Sedoheptoluse bisphosphate [1]: 0.0221
cyclic-AMP [1]: -0.3292
glutathione disulfide [1]: -0.6201
lactate [1]: -0.8724
myo-inositol [1]: -1.425
nicotinate [1]: 0.07742
ornithine [1]: 0.02649
phosphoenolpyruvate [1]: 0.334
pyruvate [1]: -0.3941
ribose-phosphate [1]: -0.07903
sarcosine/alanine [1]: -0.9167
sn-glycerol-3-phosphate [1]: 0.1681
succinate/methylmalonic acid [1]: -0.405
uridine [1]: -0.7297
xanthosine [1]: 0.125
